Data as given in patent publication US20020086278A1, “CHROMOGENIC MEDIA CONTAINING BLOOD OR HEMIN” (priority 1999, published 2002).
“And” between values parts separate entries of the source, which are not always exact repeats. Identical values can stand only once. Counter-ions that a name gives are not always drawn.

Experiments:
Escherichia coli 25922 = experiment: Example 1: growth and colony color on plates surface-spread with chromogen; type: cell-based; conditions: E. coli 25922
Group B Strep. 12386 = experiment: as above; type: cell-based; conditions: for Color / Growth: Group B Strep 12386
[1] = tested on: Gardnerella vaginalis 14019; experiment: as above; type: cell-based; conditions: Summary of Table I; G. vaginalis 14014
E. coli 25922 = experiment: Example 2: effect of incubation conditions on colony color formation; type: cell-based, Escherichia coli
S. agalactiae 12386 = experiment: as above; type: cell-based, Streptococcus agalactiae
[2] = tested on: Aeromonas hydrophilia (aehy); experiment: Example 3: colony color on chromogenic TSA II with 5% sheep blood (chromogen in medium); type: cell-based; conditions: for Colony Color: CO2, 21 h
[3] = tested on: Branhamella catarrhalis (brca); experiment: as above; type: cell-based; conditions: brca 25238; CO2; 21 h
Candida albicans (caal) = experiment: as above; type: cell-based; conditions: for Colony Color: caal 10231, 24 h
[4] = tested on: Citrobacter freundii (cifr); experiment: as above; type: cell-based; conditions: for Colony Color: CO2, 21 h
[5] = tested on: Entercoccus faecalis (enfa); experiment: as above; type: cell-based; conditions: for Colony Color: 21 h
E. faecium (enfu) = experiment: as above; type: cell-based; conditions: for Colony Color: enfu 49032, 21 h
[6] = tested on: E. coli (non-O157) (esco); type: cell-based
[7] = tested on: Klebsiella pneumoniae (klpn); experiment: Example 3: colony color on chromogenic TSA II with 5% sheep blood (chromogen in medium); type: cell-based; conditions: CO2, 21 h
[8] = tested on: Pseudomonas aeruginosa (psae); experiment: as above; type: cell-based; conditions: for Colony Color: CO2, 21 h
[9] = tested on: Serratia marcescens (sema); experiment: as above; type: cell-based
[10] = tested on: Staphylococcus aureus (stau); experiment: as above; type: cell-based
[11] = tested on: Staphylococcus Coag Neg (step); experiment: as above; type: cell-based; conditions: 21 h
S. milleri (stmi) = experiment: as above; type: cell-based
S. pneumoniae (stpn) = experiment: as above; type: cell-based
S pyogenes (stpy) = experiment: as above; type: cell-based; conditions: for Colony Color: 21 h
[12] = Precipitate of chromogen on pre-plated media; type: physicochemical; conditions: 50 μl DMSO solution on pre-plated media
Experimental: 50 μl of each chromogen solution was added to the surface of each of the following pre-plated media (one chromogen solution per plate):
The solution was dispersed using a spreader and allowed to dry 3-4 hours in a hood.

cakr 34135 = experiment: Example 3: colony color on chromogenic TSA II with 5% sheep blood (chromogen in medium); type: cell-based; conditions: CO2, 21 h
[13] = Summary of Table I, Group B Strep. 12386
[14] = chromogenic TSA II with 5% Sheep Blood, 0.1 g/l, 3 strains tested
[15] = chromogenic TSA II with 5% Sheep Blood, 0.1 g/l, 2 strains tested
[16] = chromogenic TSA II with 5% Sheep Blood, 0.1 g/l, 6 strains tested
[17] = chromogenic TSA II with 5% Sheep Blood, 0.1 g/l, 1 strain tested
[18] = chromogenic TSA II with 5% Sheep Blood, 0.1 g/l

Question: What does the source list for `O=P(O)(O)Oc1c[nH]c2cc(Cl)c(Br)cc12` [Mag-Phos, 5-Br-6-Cl-3-indolyl-phosphate, p-touidine salt]?
Answer: Color (Escherichia coli 25922; Choc II): purple; Substrates Producing Color (Escherichia coli 25922; Summary of Table I): Mag-phos; Color (Escherichia coli 25922; TSA II 5SB): purple; Color (Escherichia coli 25922; TSA Plain): purple; Color (Group B Strep. 12386; Choc II): purple; Substrates Producing Color (Group B Strep. 12386; [13]): Mag-phos; Substrates Producing Growth Inhibition (Group B Strep. 12386; [13]): Slight inhib. w/ X-; Color (Group B Strep. 12386; TSA II 5SB): purple (a); Growth (Group B Strep. 12386; TSA II 5SB): <; Color (Group B Strep. 12386; TSA Plain): purple; Growth (Group B Strep. 12386; TSA Plain): <; Substrates Producing Growth Inhibition [1]: Mag-phos; Colony Color (E. coli 25922): purple (m); Colony Color (S. agalactiae 12386): purple (m); Colony Color ([2]; aehy 7965): gp; Colony Color ([2]; aehy 7966): gp; Colony Color (Summary) [2, 14]: +; Colony Color [3]: 0; Colony Color (Candida albicans (caal); CO2): 0; Colony Color (Candida albicans (caal); air): 0; Colony Color (Summary) (Candida albicans (caal); [15]): 0; Colony Color (Summary) [4, 15]: 0; Colony Color ([4]; cifr 8454): 0; Colony Color ([4]; cifr 33128): 0; Colony Color (Summary) [5, 16]: +; Colony Color ([5]; enfa 597, CO2): lp; Colony Color ([5]; enfa 597, air): lp; Colony Color ([5]; enfa 10741, CO2): lp; Colony Color ([5]; enfa 12953, CO2): lp; Colony Color ([5]; enfa 14506, CO2): lp; Colony Color ([5]; enfa 29212, CO2): lp; Colony Color (Summary) (E. faecium (enfu); [17]): +; Colony Color (E. faecium (enfu); CO2): vlgp; Colony Color (E. faecium (enfu); air): lgp; Colony Color [6]: lp and lgb and 0; Colony Color ([7]; klpn 13883): 0; Colony Color ([7]; klpn 33606): 0; Colony Color (Summary) [8, 14]: 0; Colony Color ([8]; psae 9027): 0; Colony Color ([8]; psae 15442): 0; Colony Color ([8]; psae 33607): 0; Colony Color (Summary) [9, 17]: 0; Colony Color ([9]; sema 13880, CO2, 21 h): 0; Colony Color ([10]; stau 1006, CO2, 21 h): 0; Colony Color ([10]; stau 1007, CO2, 21 h): 0; Colony Color ([10]; stau 1008, CO2, 21 h): vlp; Colony Color ([10]; stau 1009, CO2, 21 h): vlp; Colony Color ([10]; stau 25923, CO2, 24 h): lp; Colony Color ([10]; stau 25923, air, 24 h): lp; Colony Color ([11]; step 12228, CO2): 0; Colony Color ([11]; step 12228, air): lp; Colony Color ([11]; step cdc1, CO2): lp; Colony Color ([11]; step cdc1, air): lp; Colony Color ([11]; step cdc2, CO2): 0; Colony Color ([11]; step cdc2, air): 0; Colony Color ([11]; step cdc3, CO2): 0; Colony Color ([11]; step cdc3, air): 0; Colony Color ([11]; step cdc4, CO2): lp; Colony Color ([11]; step cdc4, air): lp; Growth vs. control (S. milleri (stmi); [18]): no growth; Colony Color (S. milleri (stmi); stmi 6249, air, 21 h): 0; Growth vs. control (S. pneumoniae (stpn); [18]): <growth; Colony Color (Summary) (S. pneumoniae (stpn); [16]): 0,; Colony Color (S. pneumoniae (stpn); stpn 1259, CO2, 21 h): 0; Colony Color (S. pneumoniae (stpn); stpn 1260, CO2, 21 h): 0; Colony Color (S. pneumoniae (stpn); stpn 1628, CO2, 21 h): 0; Colony Color (S. pneumoniae (stpn); stpn 6303, CO2, 24 h): 0; Colony Color (S. pneumoniae (stpn); stpn 6303, air, 24 h): db; Colony Color (S. pneumoniae (stpn); stpn 6305, CO2, 24 h): 0; Colony Color (S. pneumoniae (stpn); stpn 6305, air, 24 h): 0; Growth vs. control (S pyogenes (stpy); [18]): <grth; Colony Color (S pyogenes (stpy); stpy 1027, CO2): vlp; Colony Color (S pyogenes (stpy); stpy 1028, CO2): vlp; Colony Color (S pyogenes (stpy); stpy 1029, CO2): vlp; Colony Color (S pyogenes (stpy); stpy 1030, CO2): vlp; Colony Color (S pyogenes (stpy); stpy 19615, CO2): lp; Colony Color (S pyogenes (stpy); stpy 19615, air): lp; Colony Color (S pyogenes (stpy); stpy 49117, CO2): lp; Colony Color (S pyogenes (stpy); stpy 51339, CO2): lp; Precipitate when spread / placed on the plated media [12]: somewhat insoluble; Colony Color (cakr 34135): lgp
